{"source": "patent US7160898B2", "about": "“Pharmacological treatment for sleep apnea” (Board of Trustees of The University of Illinois, priority 2002, dated 2007)", "key": {"[1]": {"test_system": "5-hydroxytryptamine receptors", "conditions": "anesthetized animals; cited from earlier work"}, "NREM and REM sleep": {"test_system": "NREM and REM sleep", "assay": "Sleep/wake staging by EEG/EMG after GR38032F (Example 2)", "type": "in vivo, rat (Sprague-Dawley)", "conditions": "1 mg/kg i.p.", "method": "Physiological parameters (see below) from each animal were recorded on 2 occasions in random order, with recordings for an individual animal separated for at least 3 days. Fifteen minutes prior to each recording each animal received a systemic injection (1 ml/kg intraperitoneal bolus injection) of either saline (control) or 1 mg/kg of ondansetron (GR38032F; 1,2,3,9-tetrahydro-9-methyl-3-[(2-methylimidazol-1-yl)methyl]carbazole-4-one, hydrochloride, dihydrate; Glaxo Wellcome, Inc., Research Triangle Park, N.C.). Polygraphic recordings were made from hours 10:00–16:00.\nRespiration was recorded by placing each animal, unrestrained, inside a single chamber plethysmograph (PLYUNIR/U; Buxco Electronics, Sharon, Conn.; dimension 6 in.×10 in.×6 in.) ventilated with a bias flow of fresh room air at a rate of 2 L/min. A cable plugged onto the animal's connector and passed through a sealed port was used to carry the bioelectrical activity from the head implant.\nSleep and waking states were assessed using the biparietal EEG and nuchal EMG signals on 10-second epochs as described by Bennington et al. [Sleep, 17:28–36 (1994)]. […] Sleep efficiency was measured as the percentage of total recorded epochs staged as NREM or REM sleep."}, "[2]": {"test_system": "rat model of spontaneous sleep apnea", "assay": "Spontaneous sleep apnea in freely moving rats after GR38032F (Example 2)", "type": "in vivo, rat (Sprague-Dawley)", "conditions": "1 mg/kg i.p.", "method": "Adult, male Sprague-Dawley rats (Sasco-King, Wilmington, Mass.; usually 8 per test group; 300 g) were maintained on a 12-hour light (08:00–20:00 hour)/12-hour dark (20:00–08:00 hour) cycle for one week, housed in individual cages and given ad libitum access to food and water. Following the one week of acclimatization, animals were subjected to the following surgical procedures.\nAcclimatized animals were anesthetized for the implantation of cortical electrodes for electroencephalogram (EEG) recording and neck muscle electrodes for electromyogram (EMG) recording using a mixture of ketamine (Vedco, Inc., St. Joseph, Mo.; 100 mg/ml) and acetylpromazine (Vedco, Inc., St. Joseph, Mo.; 10 mg/ml; 4:1, volume/volume) at a volume of 1 ml/kg body weight. The surface of the skull was exposed surgically and cleaned with a 20% solution of hydrogen peroxide followed by a solution of 95% isopropyl alcohol. Next, a dental preparation of sodium fluoride (Flura-GEL®, Saslow Dental, Mt. Prospect, Ill.) was applied to harden the skull above the parietal cortex and allowed to remain in place for 5 minutes. The fluoride mixture was then removed from the skull above the parietal cortex. The EEG electrodes consisting of four stainless steel machine screws, having leads attached thereto, were threaded into the skull to rest on the dura over the parietal cortex. A thin layer of Justi® resin cement (Saslow Dental, Mt. Prospect, Ill.) was applied to cover the screw heads (of screws implanted in the skull) and surrounding skull to further promote the adhesion of the implant. EMG electrodes consisting of two ball-shaped wires were inserted into the bilateral neck musculature. All leads (i.e., EEG and EMG leads) were soldered to a miniature connector (39F1401, Newark Electronics, Schaumburg, Ill.). Lastly, the entire assembly was fixed to the skull with dental cement.\nAfter surgery, all animals were allowed to recover for one week before being subjected to another surgery that involved implantation of a radiotelemetry transmitter (TA11-PXT, Data Sciences International, St. Paul, Minn.) for monitoring blood pressure (BP) and heart period (HP), estimated as pulse interval. After the animals were anesthetized (as described above), the hair from the subxiphoid space to the pelvis was removed. The entire area was scrubbed with iodine and rinsed with alcohol and saline. A 4–6 cm midline abdominal incision was made to allow good visualization of the area from the bifurcation of the aorta to the renal arteries. A retractor was used to expose the contents of the abdomen and the intestine was held back using saline moistened gauze sponges. The aorta was dissected from the surrounding fat and connective tissues using sterile cotton applicators. A 3-0 silk suture was placed beneath the aorta and traction was applied to the suture to restrict the blood flow. Then the implant (TA11-PXT) was held by forceps while the aorta was punctured just cranial to the bifurcation using a 21-gauge needle bent at the beveled end. The tip of the catheter was inserted under the needle using the needle as a guide until the thin-walled BP sensor section was within the vessel. […]\nPhysiological parameters (see below) from each animal were recorded on 2 occasions in random order, with recordings for an individual animal separated for at least 3 days. […]"}, "sleep/wake architecture": {"test_system": "sleep/wake architecture", "assay": "Sleep/wake architecture after 5-HT and GR38032F (Example 3)", "type": "in vivo, rat (Sprague-Dawley)", "conditions": "i.p.", "method": "Sleep and waking states were assessed using the biparietal EEG and nuchal EMG signals on 10-second epochs as described by Bennington et al. [Sleep, 17:28–36 (1994)]. This software discriminated wakefulness (W) as a high frequency low amplitude EEG with a concomitant high EMG tone, NREM sleep by increased spindle and […] activity together with decreased EMG tone, and REM sleep by a […] activity and an absence of EMG tone. Sleep efficiency was measured as the percentage of total recorded epochs staged as NREM or REM sleep.\nEach animal was recorded on four occasions, with recordings for an individual animal separated by at least three days. Fifteen minutes prior to each recording, each animal received (via intraperitoneal injection), in random order, one of the following: (a) saline solution (control); (b) 0.79 mg/kg serotonin; (c) 0.1 mg/kg GR38032F plus 0.79 mg/kg serotonin; or (d) 0.1 mg/kg GR38032F. For the GR38032F+serotonin test group, 0.1 mg/kg GR38032F was administered at time 09:30 followed by 0.79 mg/kg serotonin at time 09:45. Polygraphic recordings were made from 10:00–16:00.\nRespiration BP, EEG, and EMG data were determined and recorded via the experimental procedure as specifically set forth above in Example 2. As in Example 2, sleep apneas, defined as cessation of respiratory effort for at least 2.5 s, were scored for each recording session and were associated with the stage in which they occurred: NREM or REM sleep. The duration requirement of 2.5 s represents at least two “missed” breaths, which is analogous to a 10-s apnea duration requirement in humans.\nThe effects of sleep stage (NREM vs REM) and injection (control vs. administration of either serotonin alone, GR38032F+serotonin, or GR38032F alone) on apnea indexes, respiratory pattern, BP, and HP were tested using analysis of variance (ANOVA) with repeated measures. Multiple comparisons were controlled using Fisher's protected least-significance difference (PLSD). One-way ANOVA was also performed by nonparametric (Kruskal-Wallis) analysis. Conclusions using parametric and nonparametric ANOVA were identical in all cases."}, "[3]": {"conditions": "percent recording time, 6 hours, 5-HT 0.79 mg/kg, GR38032F 0.1 mg/kg, mean ± SE"}}, "data": [{"compound": "Cc1nccn1CC1CCc2c(c3ccccc3n2C)C1=O.Cl.O.O", "note": "(stereo not drawn) [GR38032F, 1,2,3,9-tetrahydro-9-methyl-3-[(2-methylimidazol-1-yl)methyl]carbazole-4-one, hydrochloride, dihydrate]", "values": [{"measurement": "antagonism of agonist-induced transient apnea", "setting": "[1]", "result": "significantly antagonized"}, {"measurement": "percentage of total recording time spent in REM sleep", "setting": "NREM and REM sleep; 6 hours", "result": "did not significantly affect REM sleep"}, {"measurement": "percentage of total recording time spent in NREM sleep", "setting": "NREM and REM sleep; first 2 hours, p<0.001", "result": "significant suppression of NREM sleep"}, {"measurement": "time for which REM sleep apneas were completely abolished following injection", "setting": "[2]", "result": "at least 4 hours"}, {"measurement": "rate of apneas per hour of REM sleep", "setting": "[2]; 6 hour recording period, p=0.01 2-way ANOVA", "result": "significant suppressant effect"}, {"measurement": "rate of apneas per hour of NREM sleep", "setting": "[2]; first 2 hours of recording, paired t-tests p<0.01", "result": "significant suppression of apneas"}, {"measurement": "spontaneous apneas in REM sleep", "setting": "[2]; first 4 hours of recordings", "result": "no animal exhibited a single spontaneous apnea in REM sleep"}, {"measurement": "rate of apneas per hour of NREM sleep", "setting": "[2]; whole 6 hours of recording, two-way ANOVA vs saline control", "result": "no significant effect of treatment or time over 6 hours"}, {"measurement": "effect on sleep architecture", "setting": "sleep/wake architecture; 6 hours of polygraphic recording", "result": "had no effect on sleep architecture"}, {"measurement": "% NREM", "setting": "sleep/wake architecture; [3]", "result": "63.4 ± 5.7", "unit": "%"}, {"measurement": "% REM", "setting": "sleep/wake architecture; [3]", "result": "7.3 ± 2.3", "unit": "%"}, {"measurement": "% Wakefulness", "setting": "sleep/wake architecture; [3]", "result": "28.8 ± 6.4", "unit": "%"}]}]}
